Test results from ChEMBL document CHEMBL3885881, “DrugMatrix”.

Organism: Rattus norvegicus
Assay: DrugMatrix - Regimen: Daily Repeat
Format: toxicity, organism-based, Sprague-Dawley
Set-up: regimen Daily Repeat, gender Male, age 6-8 weeks
Details: in vivo, po, route oral GAVAGE, vehicle .5 % CMC; for BASOPHIL / EOSINOPHIL / ERYTHROCYTE COUNT / HEMATOCRIT / HEMOGLOBIN / LYMPHOCYTE / MEAN CORPUSCULAR HEMOGLOBIN / MEAN CORPUSCULAR HEMOGLOBIN CONCENTRATION / MEAN CORPUSCULAR VOLUME / MONOCYTE / NEUTROPHIL / PLATELET COUNT: tissue Blood; for ALANINE AMINOTRANSFERASE / ALBUMIN / ALKALINE PHOSPHATASE / ASPARTATE AMINOTRANSFERASE / BLOOD UREA NITROGEN / CHOLESTEROL / CREATINE PHOSPHOKINASE / CREATININE / GLUCOSE / PHOSPHORUS / POTASSIUM / SODIUM / TOTAL BILIRUBIN / TOTAL PROTEIN: tissue Plasma
[1] = 0 mg/kg, 72 h, dose level Control, time 3 day
[2] = 0 mg/kg, 120 h, dose level Control, time 5 day
[3] = 20 mg/kg, 72 h, dose level Low, time 3 day
[4] = 20 mg/kg, 120 h, dose level Low, time 5 day

CN(C)CCC=C1c2ccccc2COc2ccccc21 [DOXEPIN]
BASOPHIL [1]: 0% | EOSINOPHIL [1]: 0.33% | ERYTHROCYTE COUNT [1]: 6.2 x10E6/uL | HEMATOCRIT [1]: 38.08% | HEMOGLOBIN [1]: 14.92 G/DL | LYMPHOCYTE [1]: 76% | MEAN CORPUSCULAR HEMOGLOBIN [1]: 24.1 pg | MEAN CORPUSCULAR HEMOGLOBIN CONCENTRATION [1]: 39.17 G/DL | MEAN CORPUSCULAR VOLUME [1]: 61.48 fL | MONOCYTE [1]: 3.83% | NEUTROPHIL [1]: 19.83% | PLATELET COUNT [1]: 1327.5 x10E3/uL | ALANINE AMINOTRANSFERASE [1]: 40.17 u/L | ALBUMIN [1]: 4.07 G/DL | ALKALINE PHOSPHATASE [1]: 372 u/L | ASPARTATE AMINOTRANSFERASE [1]: 67.17 u/L | BLOOD UREA NITROGEN [1]: 18.83 mg/dL | CHOLESTEROL [1]: 78.17 mg/dL | CREATINE PHOSPHOKINASE [1]: 149.17 u/L | CREATININE [1]: 0.57 mg/dL | GLUCOSE [1]: 185.17 mg/dL | PHOSPHORUS [1]: 11.43 mg/dL | POTASSIUM [1]: 6.78 MEQ/L | SODIUM [1]: 152.83 MEQ/L | TOTAL BILIRUBIN [1]: 0.4 mg/dL | TOTAL PROTEIN [1]: 6.87 G/DL | BASOPHIL [2]: 0% | EOSINOPHIL [2]: 0% | ERYTHROCYTE COUNT [2]: 6.05 x10E6/uL | HEMATOCRIT [2]: 36.55% | HEMOGLOBIN [2]: 14.7 G/DL | LYMPHOCYTE [2]: 86.83% | MEAN CORPUSCULAR HEMOGLOBIN [2]: 24.37 pg | MEAN CORPUSCULAR HEMOGLOBIN CONCENTRATION [2]: 40.32 G/DL | MEAN CORPUSCULAR VOLUME [2]: 60.47 fL | MONOCYTE [2]: 0.83% | NEUTROPHIL [2]: 12.33% | PLATELET COUNT [2]: 1177 x10E3/uL | ALANINE AMINOTRANSFERASE [2]: 41.83 u/L | ALBUMIN [2]: 3.75 G/DL | ALKALINE PHOSPHATASE [2]: 377.5 u/L | ASPARTATE AMINOTRANSFERASE [2]: 60.83 u/L | BLOOD UREA NITROGEN [2]: 16 mg/dL | CHOLESTEROL [2]: 67.83 mg/dL | CREATINE PHOSPHOKINASE [2]: 120.33 u/L | CREATININE [2]: 0.6 mg/dL | GLUCOSE [2]: 167.67 mg/dL | PHOSPHORUS [2]: 10.03 mg/dL | POTASSIUM [2]: 6.68 MEQ/L | SODIUM [2]: 150.5 MEQ/L | TOTAL BILIRUBIN [2]: 0.57 mg/dL | TOTAL PROTEIN [2]: 6.25 G/DL | BASOPHIL [3]: 0% | EOSINOPHIL [3]: 0% | ERYTHROCYTE COUNT [3]: 5.9 x10E6/uL | HEMATOCRIT [3]: 36.4% | HEMOGLOBIN [3]: 14.15 G/DL | LYMPHOCYTE [3]: 83% | MEAN CORPUSCULAR HEMOGLOBIN [3]: 24 pg | MEAN CORPUSCULAR HEMOGLOBIN CONCENTRATION [3]: 38.9 G/DL | MEAN CORPUSCULAR VOLUME [3]: 61.75 fL | MONOCYTE [3]: 0% | NEUTROPHIL [3]: 17% | PLATELET COUNT [3]: 1287.5 x10E3/uL | ALANINE AMINOTRANSFERASE [3]: 38.33 u/L | ALBUMIN [3]: 3.6 G/DL | ALKALINE PHOSPHATASE [3]: 352.33 u/L | ASPARTATE AMINOTRANSFERASE [3]: 56.67 u/L | BLOOD UREA NITROGEN [3]: 11.67 mg/dL | CHOLESTEROL [3]: 72.67 mg/dL | CREATINE PHOSPHOKINASE [3]: 139.33 u/L | CREATININE [3]: 0.53 mg/dL | GLUCOSE [3]: 179.67 mg/dL | PHOSPHORUS [3]: 11.8 mg/dL | POTASSIUM [3]: 6.33 MEQ/L | SODIUM [3]: 150 MEQ/L | TOTAL BILIRUBIN [3]: 0.2 mg/dL | TOTAL PROTEIN [3]: 5.83 G/DL | BASOPHIL [4]: 0% | EOSINOPHIL [4]: 0% | ERYTHROCYTE COUNT [4]: 6.16 x10E6/uL | HEMATOCRIT [4]: 37.07% | HEMOGLOBIN [4]: 14.67 G/DL | LYMPHOCYTE [4]: 91.67% | MEAN CORPUSCULAR HEMOGLOBIN [4]: 23.87 pg | MEAN CORPUSCULAR HEMOGLOBIN CONCENTRATION [4]: 39.57 G/DL | MEAN CORPUSCULAR VOLUME [4]: 60.23 fL | MONOCYTE [4]: 0.33% | NEUTROPHIL [4]: 8% | PLATELET COUNT [4]: 1231.33 x10E3/uL | ALANINE AMINOTRANSFERASE [4]: 36 u/L | ALBUMIN [4]: 3.67 G/DL | ALKALINE PHOSPHATASE [4]: 311.33 u/L | ASPARTATE AMINOTRANSFERASE [4]: 55.67 u/L | BLOOD UREA NITROGEN [4]: 12.67 mg/dL | CHOLESTEROL [4]: 71.33 mg/dL | CREATINE PHOSPHOKINASE [4]: 153 u/L | CREATININE [4]: 0.6 mg/dL | GLUCOSE [4]: 161.33 mg/dL | PHOSPHORUS [4]: 12.47 mg/dL | POTASSIUM [4]: 6.8 MEQ/L | SODIUM [4]: 151.67 MEQ/L | TOTAL BILIRUBIN [4]: 0.43 mg/dL | TOTAL PROTEIN [4]: 6.17 G/DL
